The values that follow come from patent US20100239501A1, “GENE SENSITIVE TO BONE/JOINT DISEASE AND USE THEREOF” (RIKEN, priority 2007, published 2010).

Series [1] addresses T1, EDG2 (Homo sapiens, UniProt Q92633). As to the kind of experiment: IL6 gene expression in LPA-stimulated HFLS-OA treated with EDG2 antagonist. It counts as cell-based. Also on record: OA patient-derived fibroblast-like synovial cells (HFLS-OA) were purchased from Cell application Co; host or cells: HFLS-OA (OA patient-derived fibroblast-like synovial cells). To be noted: Ki16425 0, 0.3, 1, 3, 10 and 33 μM for 30 minutes, then 10 μM LPA, 2 hours, n=4.
Experimental: Furthermore, the involvement of EDG2 in the LPA-induced inflammatory cytokine raising reaction in human OA synovial cells was analyzed using an antagonist against EDG2. […] As the EDG2 antagonist, Ki16425 (Sigma) was used. OA patient-derived fibroblast-like synovial cells (HFLS-OA) were purchased from Cell application Co. The HFLS-OA was cultured using the attached Synoviocyte growth medium. The number of passages for the cells used was 4 or 5. The HFLS-OA was seeded to a 24-well plate at a ratio of 1×10^5 cells/well, and cultured using the attached Synoviocyte growth medium until they became confluent. Twelve hours before performing LPA stimulation, the medium was replaced with Ham's F-12 (Invitrogen) medium containing 0.1% fatty acid free bovine serum albumin (Sigma). Twelve hours after the medium replacement, the cells were treated with Ki16425 (0, 0.3, 1, 3, 10 and 33 μM) for 30 minutes. Thereafter, the cells were stimulated with 10 μM LPA; 2 hours later, total RNA was extracted using ISOGEN (Nippon Gene), and the amount expressed of the IL6 gene was quantified by a method in accordance with Example 10 (n=4).

For series [2], the target named is T1, EDG2. The series is described as follows: Intracellular Ca2+ concentration (FLIPR tetra) in McA-RH7777 cells stably expressing EDG2. The class given is cell-based. More on the design: Dainippon Pharmaceutical Co., Ltd. (cells); host or cells: McA-RH7777. The following applies: LPA 0.3 μM, Ki16425 10^−8 to 10^−5 M added previously. As for the experimental part:
A forcible expression vector comprising an ORF sequence of human EDG2 [hEDG2-pcDNA3.1(+)] was purchased from UMR cDNA Resource Center. This plasmid was introduced into McA-RH7777 (Dainippon Pharmaceutical Co., Ltd.) using Lipofectamine LTX (Invitrogen), and the cells were cultured in a medium containing Geneticin for 14 to 20 days to acquire cells that stably express EDG2.
Next, an evaluation was made using FLIPR tetra (Molecular Devices) to confirm that stimulation with LPA raised intracellular Ca concentrations via the EDG2 expressed. That is, these cells were seeded to a 384-well plate, 0.03 to 10 μM LPA (Sigma) was added to each well, and it was confirmed that rises in intracellular Ca^2+ concentration occurred. LPA dose-dependently.

The target in a further series is T2, EDG7 (Homo sapiens, UniProt Q9UBY5).
T2 sequence (Q9UBY5 1-353): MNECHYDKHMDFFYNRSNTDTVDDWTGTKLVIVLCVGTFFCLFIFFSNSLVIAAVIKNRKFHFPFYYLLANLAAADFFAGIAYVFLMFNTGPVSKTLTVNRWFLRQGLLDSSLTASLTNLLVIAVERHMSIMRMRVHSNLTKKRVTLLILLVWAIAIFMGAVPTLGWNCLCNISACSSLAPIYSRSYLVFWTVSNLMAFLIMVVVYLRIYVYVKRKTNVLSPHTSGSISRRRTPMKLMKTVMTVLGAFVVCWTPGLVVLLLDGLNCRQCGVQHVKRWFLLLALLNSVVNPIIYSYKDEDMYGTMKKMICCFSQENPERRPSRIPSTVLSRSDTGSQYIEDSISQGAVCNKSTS
The following applies: no test described; cited from earlier work.

In series [3] the test system is EDG2 gene transcription activity (i-EDG2-09 region). As to the kind of experiment: i-EDG2-09 luciferase reporter assay in PMA-stimulated E11 cells. It counts as cell-based, human. The following applies: both constructs (G allele and A allele), 10 ng/ml PMA, 5 hours after stimulation. An excerpt:
An AP-1-binding motif described in a report by Duncliffe et al. [Immunity. […] 28; 276(52):48871-8.] is present 11 to 16 by upstream. The existence of a transcriptional factor-binding motif where AP-1 and NFAT are located in tandem is known in a plurality of genes [Macian F, Lopez-Rodriguez C and Rao A., Oncogene. 2001 Apr. 30; 20(19):2476-89. Review.]. Meanwhile, in the surrounding sequence, including i-EDG2-12, no distinct transcriptional factor binding sequence was found. […] Oligonucleotides (sense strand and antisense strand) wherein 4 bp at the restriction endonuclease NheI adhesion end is added on the 5′ side of a region centering at i-EDG2-09, and comprising the AP-1 and NFAT-binding motifs (a region at −2809 to −2839 from the transcription initiation point of EDG2), and 4 bp at the XbaI adhesion end is added on the 3′ side, were prepared for both alleles of i-EDG2-09 (G or A). After these oligonucleotides were converted to double-stranded DNAs for each allele, reporter constructs wherein each allele was integrated in tandem 5 times in the NheI site of the pGL3-promoter vector (Promega), which is a luciferase reporter vector, while retaining the orientation were prepared for G allele and A allele. […] Five hours after the stimulation, the cells were solubilized, and luciferase activity was measured using the PicaGene Dual SeaPansy System (Toyo Ink). […]
A general note: In a reporter assay the amount or activity of a reporter protein is the signal.

Series [4] deals with synovial cell line E11 cells. As to the kind of experiment: EDG2 gene expression in PMA-stimulated E11 cells (quantitative real-time PCR). The class given is cell-based, human. To be noted: PMA 10 ng/ml, from 2 hours to 12 hours after addition, n=4. On the procedure: To analyze the expression of the four LPA receptors examined in Example 10 in joint tissue, an expression quantitation analysis by quantitative real-time PCR was performed on articular cartilages and synovial tissues of knee OA patients. The method used was in accordance with Example 10. Total RNA was extracted from each tissue (articular cartilage n=4, synovial membrane n=3) using Isogen (Nippon Gene), and reverse transcription was performed on 500 ng of total RNA using Multiscribe reverse transcriptase (Applied biosystems) and a random hexamer, whereby a cDNA was obtained. Quantitation of the LPA receptor genes was performed using QuantiTect STBR Green PCR (Qiagen) on the ABI PRISM 7700 sequence detection system (Applied biosystems) as directed in the documentation attached. The number of copies of each gene was calculated using a working curve. The amount of each gene was standardized by being divided by the number of copies of the G3PDH gene. A Toyobo product was used as the primer for the G3PDH gene. […] The amount of the EDG2 gene expressed was higher in synovial membrane at a level about 10 times as high as in articular cartilage. […]
The method used is described below. […] In these total RNAs, the amount expressed of the EDG2 gene relative to G3PDH was measured in accordance with the method described in Example 11. […]

In series [5] the test system is transcriptional factor AP-1. As to the kind of experiment: AP-1 cis-reporter luciferase assay in PMA-stimulated E11 cells. The class given is cell-based, human. To be noted: 0.1, 1 and 10 ng/ml PMA, 24 hours after stimulation, n=2. An excerpt:
Because the EDG2 gene is an LPA receptor that is dominant in OA synovial membrane, it was decided to perform a functional analysis of OA susceptibility polymorphs using synovial cells. E11 cells are a cell line established by immortalizing fibroblast-like cells from a rheumatoid arthritis patient synovial membrane with simian SV40 large T antigen (Abe et al, J Rheumatol. 1997 March; 24(3):420-9.). In the 5′-flanking region of EDG2, where i-EDG2-09 and 12 are present, an AP-1-binding motif is present. […] The method used is described below. The E11 cells were cultured using Dulbecco's Modified Eagle's Medium (DMEM, Sigma) containing 10% fetal bovine serum (FBS), antibiotics (100 U/ml penicillin G and 100 μg/ml streptomycin) and L-glutamine ([…]). On the day before the transfection, the E11 cells were seeded to a 24-multiwell plate to obtain a cell density of 5×10^4 cells/well. The following day, using Fugene-6 (Roche diagnostics), 200 ng of the reporter construct and 4 ng of pRL-TK (Promega) as the internal standard for correction of transfection efficiency, per well were transfected. Twenty-four after the transfection, the cells were cultured on a medium containing 0.1, 1 and 10 ng/ml PMA. Twenty-four hours after the stimulation, the cells were solubilized, and luciferase activity was measured using PicaGene Dual SeaPansy System (Toyo Ink). The number of cases was n=2.

Series [6] has as its system EDG2. The series is described as follows: EDG2 knockdown by siRNA in LPA-stimulated HFLS-OA. The class given is cell-based, human. The following applies: n=4. As for the experimental part:
To analyze the involvement of EDG2 in the LPA-induced inflammatory cytokine raising reaction in human OA synovial cells, obtained in Example 17, an investigation using an siRNA was performed. The method used is described below. An siRNA against EDG2 was designed by utilizing an siRNA design support system available from the Takara Bio Web site (http://bio.takara.co.jp). Synthesis of the siRNA was outsourced to Takara Bio. The control siRNA used was such that the sequence of an siRNA against asporin was scrambled. OA patient-derived fibroblast-like synovial cells (HFLS-OA) were purchased from Cell application Co. The HFLS-OA was cultured using the attached Synoviocyte growth medium. The number of passages for the cells used was 4 or 5. The HFLS-OA was seeded to a 24-well plate at a ratio of 1×10^5 cells/well, and cultured using the attached Synoviocyte growth medium. The following day, the siRNA against EDG2 was introduced into the HFLS-OA to obtain a final concentration of 11 nM, using the Trans-IT-TKO transfection regent (Mirus Co.), according to the attached protocol. […] Twelve hours after the medium replacement, the cells were stimulated with 10 μM LPA; 2 hours later, total RNA was extracted using ISOGEN (Nippon Gene), and the amount of the IL6 gene expressed was quantified by a method in accordance with Example 10 (n=4).

T1 sequence (Q92633 whole entry): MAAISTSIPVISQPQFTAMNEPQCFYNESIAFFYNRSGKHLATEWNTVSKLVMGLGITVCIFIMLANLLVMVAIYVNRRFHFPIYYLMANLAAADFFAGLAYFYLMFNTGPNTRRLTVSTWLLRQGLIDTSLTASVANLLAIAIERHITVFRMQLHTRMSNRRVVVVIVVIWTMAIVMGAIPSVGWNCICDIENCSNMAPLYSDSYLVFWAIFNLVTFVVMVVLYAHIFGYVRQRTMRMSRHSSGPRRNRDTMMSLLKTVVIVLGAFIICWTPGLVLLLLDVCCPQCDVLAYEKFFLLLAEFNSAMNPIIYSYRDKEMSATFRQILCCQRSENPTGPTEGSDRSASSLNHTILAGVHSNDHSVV

For the compound `Cc1noc(-c2ccc(CSCCC(=O)O)cc2)c1NC(=O)OC(C)c1ccccc1Cl` (centres unmarked) [Ki16425], the “suppression of the rise in the expression of the IL6 gene by LPA” value on EDG2 [1] was “dose-dependently”. In addition, the “suppression of elevation of intracellular Ca2+ concentration by LPA stimulation” value on EDG2 [2] is “suppressed dose-dependently”. At EDG7, the “antagonist activity against EDG7” value was “antagonist activity”.

For the compound `CCCCCCCCCCCCCC(=O)O[C@@H]1[C@@H](C)[C@@]2(O)[C@@H](C=C(CO)C[C@]3(O)C(=O)C(C)=C[C@@H]23)[C@@H]2C(C)(C)[C@]12OC(C)=O` [PMA, phorbol 12-myristate 13-acetate], in series [3], the “luciferase activity of i-EDG2-09 reporter constructs” value is “rose significantly”. For the same compound, the “amount expressed of the EDG2 gene relative to G3PDH” value in series [4] was “rose over time”. Besides, the “luciferase activity (AP-1 binding motif reporter)” value in series [5] is given as “rose PMA dose-dependently”.

For the compound “siRNA against EDG2: siRNA used in EDG2 knockdown; sense GAAAUGAGCGCCACCUUUATT (SEQ ID NO 40), antisense UAAAGGUGGCGCUCAUUUCTT (SEQ ID NO 41) (chemistry not given here)”, the “amount expressed of the IL6 gene, which rises in response to LPA” value in the series with EDG2 [6] (siRNA 11 nM, 10 μM LPA, 2 hours) is listed as “significantly suppressed”. Besides, the “amount of EDG2 expressed” value with EDG2 [6] (siRNA final concentration 11 nM) was “significantly suppressed”.
